Laboratory results published in patent US20200368315A1, “ANTIMICROBIAL PEPTIDES AND ADMIXTURES THEREOF SHOWING ANTIMICROBIAL ACTIVITY AGAINST GRAM-NEGATIVE PATHOGENS” (priority 2017, published 2020).
Converted amounts (≈) assume the structure as drawn.

Legend:
[1] = system: Acinetobacter baumannii ATCC 17978; test: microbe, parasite or virus in culture; assay type: cell-based; conditions: ATCC 17978
Experimental: (§1) Testing was performed according to CLSI (Clinical Laboratory Standards Institute) guidelines. Read out of the study was determination of MIC—minimal inhibitory concentration expressed in μg/mL.
(§2) Out of these PBS solutions, 76.8 μL was transferred to 1423.2 μL of MH media in deep well for testing compound alone. […] Out of these working solutions 100 μL were transferred to wells in the third column of 96-well assay plates. Assay plates were previously filled with 50 μL of MH media in all wells except for the wells in the third column.
(§3) Microorganisms used were all revived from skim milk storage at −70° C. by plating them on MH agar plates. The following day a single colony of each microorganism was again streaked on fresh agar plates. The next day, using direct colony suspension method, broth solutions that achieve turbidity equivalent to 0.5 McFarland standard for each microorganism were prepared. […] Out of these suspensions, actual inoculums were prepared by diluting them 100× with MH media giving final microorganism count of 2-8×10^5 CFU/mL. For each strain of microorganisms, 20 mL of these inoculum solutions were prepared. From the second to the twelfth column of 96-well plates, 50 μL of these solutions were transferred per well. To the first column, 50 μL per well of pure growth media was added. In this manner the first column was used as sterility control of media used, the second column was used as control of microorganism's growth and the rest of the plate was used for MIC determination. All plates were incubated for 16-24 h at 37° C.
(§4) MIC value was determined by visual inspection of bacterial growth within 96-well plates. The first column in which there was no visible growth of bacteria was determined as MIC value for peptide or combination tested in that particular row.

[2] = system: Escherichia coli ATCC 25922; test: microbe, parasite or virus in culture; assay type: cell-based; conditions: ATCC 25922
Experimental: as §1, §2, §3, §4

[3] = system: Klebsiella pneumoniae ATCC 700603; test: microbe, parasite or virus in culture; assay type: cell-based; conditions: ATCC 700603
Experimental: as §1, §2, §3, §4

[4] = system: Pseudomonas aeruginosa ATCC 27853; test: microbe, parasite or virus in culture; assay type: cell-based; conditions: ATCC 27853
Experimental: as §1, §2, §3, §4

[5] = system: Acinetobacter baumannii ATCC BAA-1605; test: microbe, parasite or virus in culture; conditions: ATCC BAA-1605
Experimental: as §1, §2, §3, §4

[6] = system: Acinetobacter baumannii B2026, clinical isolate; test: microbe, parasite or virus in culture; conditions: B2026, clinical isolate
Experimental: as §1, §2, §3, §4

[7] = system: Escherichia coli ATCC BAA-2452; test: microbe, parasite or virus in culture; conditions: ATCC BAA-2452
Experimental: as §1, §2, §3, §4

[8] = system: Escherichia coli B1927, clinical isolate; test: microbe, parasite or virus in culture; conditions: B1927, clinical isolate
Experimental: as §1, §2, §3, §4

[9] = system: Klebsiella pneumoniae ATCC BAA-2524; test: microbe, parasite or virus in culture; conditions: ATCC BAA-2524
Experimental: as §1, §2, §3, §4

[10] = system: Klebsiella pneumoniae B1945, clinical isolate; test: microbe, parasite or virus in culture; conditions: B1945, clinical isolate
Experimental: as §1, §2, §3, §4

[11] = system: Pseudomonas aeruginosa ATCC BAA-2108; test: microbe, parasite or virus in culture; conditions: ATCC BAA-2108
Experimental: as §1, §2, §3, §4

[12] = system: Pseudomonas aeruginosa B1954, clinical isolate; test: microbe, parasite or virus in culture; conditions: B1954, clinical isolate
Experimental: as §1, §2, §3, §4

[13] = in vitro; conditions: human
Experimental: ATP levels were measured by adding 50 μL of CellTiter-Glo reagent to each well and after 5 minutes of incubation luminescence was measured with SpectraMax i3.
96-well plates were seeded with HEK293 cells at concentration of 30,000 cells per well in 100 μL of DMEM growth media supplemented with 1% NEAA and 10% FBS. Border wells were filled with 100 μL of sterile PBS. The next day compounds were added to cells. Compounds were first 2× diluted in 96-well V-bottom plate in PBS. After that compounds were mixed with media in 96-deep-well plate for final concentrations. Growth media from 3 plates was aspirated and replaced with 100 μL of prepared compounds. Compounds were tested in duplicate. ATP levels were measured by adding 50 μL of CellTiter-Glo reagent to each well and after 5 minutes of incubation luminescence was measured with SpectraMax i3. […] The potential effects were then calculated and presented as IC50 values (μg/mL).

Structure (SMILES)	MIC [1] [µg/mL]	MIC [2] [µg/mL]	MIC [3] [µg/mL]	MIC [4] [µg/mL]	MIC [5] [µg/mL]	MIC [6] [µg/mL]	MIC [7] [µg/mL]	MIC [8] [µg/mL]	MIC [9] [µg/mL]	MIC [10] [µg/mL]	MIC [11] [µg/mL]	MIC [12] [µg/mL]	IC50 [13] [µg/mL]
CC[C@@H](C)[C@@H](NC(=O)[C@@H](CCCNC(=N)N)NC(=O)[C@@H](CCCNC(=N)N)NC(=O)[C@@H](Cc1ccccc1)NC(=O)[C@@H](CC(C)C)NC(=O)[C@@H](CCCNC(=N)N)NC(=O)[C@H](N)CCCNC(=N)N)C(=O)N[C@H](CC(C)C)C(=O)N[C@H](CCCNC(=N)N)C(=O)N[C@H](Cc1c[nH]c2ccccc12)C(=O)N[C@H](CC(C)C)C(N)=O [D6]	2	2	4	4	8	4	2	2	4	8	8	4	52.1 (≈ 32.9 µM)
CC[C@@H](C)[C@@H](NC(=O)[C@H](N)CCCNC(=N)N)C(=O)N[C@@H](C(=O)N[C@H](CCC(N)=O)C(=O)N[C@H](CCCNC(=N)N)C(=O)N[C@@H](C(=O)N[C@H](CCCCN)C(=O)N[C@H](CCCCN)C(=O)N[C@H](Cc1c[nH]c2ccccc12)C(=O)N[C@H](CC(C)C)C(=O)N[C@H](CCCNC(=N)N)C(N)=O)[C@H](C)CC)C(C)C [D8]	16	8	>128	64	16	16	8	4	>128	32	>128	128	> 64
